Data on one compound can be found in US20210046042A1, “SUBSTANCES AND COMPOSITIONS FOR THE USE IN THE TREATMENT OF ENDOMETRIOSIS AND ENDOMETRIOSIS ASSOCIATED SYMPTOMS” (SISTEMI SALUTE S.R.L., priority 2017, published 2021).

Entries after “also recorded” stand apart in the source; their conditions may differ.

For the data set, the system named is patients affected by endometriosis, IV stage (deep endometriosis, adenomyosis and ovarian endometriosis). The data set is described as follows: Clinical study on patients affected by endometriosis treated with Luteolin. Format: in vivo, human. How it is done:
Clinical Study on Patients Affected by Endometriosis Treated with […]
A composition in powder for oral administration containing Luteolin (62.5 mg of extract of shells of peanuts standardized to 80% Luteolin) equal to 50 mg was prepared.
18 patients affected by endometriosis, IV stage, were identified, all of them with deep endometriosis, adenomyosis and ovarian endometriosis (endometriosis ovarian cysts larger than 3 cm), the disease diagnosis was placed with diagnostic protocol including vaginal and rectal explorations for the diagnosis of deep endometriosis, Nuclear magnetic resonance of pelvis with examination of resonance parameters for the diagnosis of adenomyosis, thickness of the neck-body junction area (JZ) of the uterus larger than 12 mm, exclusion criterion for adenomyosis thickness smaller than 8 mm, examination of the myometrium structure, examination of the myometrium thicknesses both of front and rear wall, hematic examinations comprising the marker Ca 125, the dosage of 17B-estradiol and of testosterone.
The first group constituted by 18 patients ingested 2 capsules per day, every twelve hours, for 45 days of the composition containing Luteolin 50 mg.
For the disease evaluation:
The dosage of 17B-estradiol
The dosage of testosterone
The Rectal examination for deep endometriosis
The rectal examination for deep endometriosis
The nuclear magnetic resonance of pelvis with contrast medium (gadolinium) were performed.
INCLUSION CRITERIA for experimentation
Not ingestion of pain-relieving drugs
Absence of anti-inflammatory drugs
Positive Vaginal examination
Positive rectal examination

The mark [1] stands for this setting: 21st day of treatment, basal JZ>12 mm.
Setting [2] is: study group, 21st day of treatment, basal VAS>=7.

Turning to `O=c1cc(-c2ccc(O)c(O)c2)oc2cc(O)cc(O)c12` [Luteolin, 2-(3,4-dihydroxyphenyl)-,5,7dihydroxy-4-chromenone], for the setting “21st day of treatment, basal 0.13 ng/ml”, the “Serum dosage of testosterone average value of the sample” value came to 0.15 ng/mL. Besides, under setting [1], the “RMN Adenomyosis JZ between 12 and 8 mm” value came to 5%; the “RMN Adenomyosis JZ<8 mm” value turned out to be 95%. The “adenomyosis JZ” value (Luteolin 50 mg oral twice a day, 18 patients) is reported as under 12 mm. The “disease parameters (deep endometriosis, adenomyosis, ovarian endometriosis)” value (Luteolin 50 mg oral twice a day, 18 patients, IV stage) is on record as “quick reduction; also recorded: quick decrease”. In addition, the “average maximum diameter of the ovarian cysts” value (Luteolin 50 mg oral twice a day, 18 patients, from cm 5.34) was found to be 2.14 cm. Further, for the setting “Luteolin 50 mg oral twice a day, 45 days”, the “side effects / voluntary suspensions of the treatment” value was “No side effects”. Further, the “antigen marker Ca 125 (in words)” value (Luteolin 50 mg twice a day, all treated patients) is recorded as “reduced; also recorded: negativization”. Further, the “RMN ovarian cysts weighted average (maximum diameter)” value (after 21 days of therapy, basal cm 5.34) came out at 2.14. Further, the “regression of the symptoms” value (after five days from the beginning of administration, constant for 45 days) is listed as “almost disappeared”. Where the note is “serum, 21st day of period, 21st day of treatment, basal 199 pg/ml”, the “17 Beta-Estradiol dosage average value of the sample” value amounted to 196 pg/mL. The “Ca 125 dosage: average value” (serum, 21st day of treatment, basal 72.6 UI/ml) stood at 32.1 UI/ml. The compound also had a Headache (study group, 21st day of treatment, Luteolin 50 mg oral twice a day, basal 21%) of 11%. Further, the Cystitis (study group, 21st day of treatment, Luteolin 50 mg oral twice a day, basal 23%) stood at 5%. Under setting [2], the “Chronic pelvic pain VAS<3” value was determined as 100, the “Dysmenorrhea VAS<3” value was found to be 100 and the “Dyspareunia VAS<=3” value worked out at 100.
